Assay results taken from ChEMBL document CHEMBL1201862, “PubChem BioAssay data set” (2004).
Active and inactive are the calls of the source.

What was measured:
[1] = tested on: Streptococcus sp. 'group A'; experiment: growth inhibition of control SK(-) GAS strain, dose response, counter-screen for streptokinase expression inhibitor project, luminescence, kanamycin, BacTiterGlo, confirmation (AID 1900); assay type: functional, organism-based
[2] = target: T1, Sentrin-specific protease 7 (Homo sapiens, UniProt Q9BQF6); assay type: functional;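 note: Luminescence-based dose-response confirmation of ultra-high-throughput screening hits, measuring inhibition of SENP7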
T1 sequence (Q9BQF6 whole entry): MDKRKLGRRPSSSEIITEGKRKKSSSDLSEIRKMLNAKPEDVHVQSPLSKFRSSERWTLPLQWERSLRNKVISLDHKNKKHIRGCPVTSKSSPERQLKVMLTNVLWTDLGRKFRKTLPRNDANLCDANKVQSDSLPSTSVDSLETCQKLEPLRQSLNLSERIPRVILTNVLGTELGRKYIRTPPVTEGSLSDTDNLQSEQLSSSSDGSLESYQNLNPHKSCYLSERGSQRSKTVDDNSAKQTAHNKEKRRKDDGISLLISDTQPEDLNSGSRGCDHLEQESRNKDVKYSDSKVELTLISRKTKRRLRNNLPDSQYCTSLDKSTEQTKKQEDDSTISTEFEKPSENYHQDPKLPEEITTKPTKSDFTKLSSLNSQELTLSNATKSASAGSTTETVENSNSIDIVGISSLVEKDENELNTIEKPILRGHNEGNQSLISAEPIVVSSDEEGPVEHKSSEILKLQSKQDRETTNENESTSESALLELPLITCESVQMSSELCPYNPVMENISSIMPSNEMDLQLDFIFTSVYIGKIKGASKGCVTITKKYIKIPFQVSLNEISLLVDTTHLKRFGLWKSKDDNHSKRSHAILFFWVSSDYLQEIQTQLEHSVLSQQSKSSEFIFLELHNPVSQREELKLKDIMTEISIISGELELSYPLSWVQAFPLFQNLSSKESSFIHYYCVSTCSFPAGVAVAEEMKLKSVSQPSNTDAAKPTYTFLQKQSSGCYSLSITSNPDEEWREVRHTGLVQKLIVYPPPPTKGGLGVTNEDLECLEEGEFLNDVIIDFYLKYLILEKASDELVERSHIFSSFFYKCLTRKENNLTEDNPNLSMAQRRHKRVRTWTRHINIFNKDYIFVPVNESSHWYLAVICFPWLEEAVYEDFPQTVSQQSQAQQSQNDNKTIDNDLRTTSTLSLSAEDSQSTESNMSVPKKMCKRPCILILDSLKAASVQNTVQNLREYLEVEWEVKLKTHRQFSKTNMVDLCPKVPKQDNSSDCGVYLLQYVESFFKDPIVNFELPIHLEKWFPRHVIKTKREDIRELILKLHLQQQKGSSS

[3] = target: T2, Replicative DNA helicase DnaB (Mycobacterium tuberculosis, UniProt P9WMR3); experiment: DnaB intein splicing inhibitors, dose response, biochemical, cell-free fluorescence (AID 449749); assay type: functional
T2 sequence (P9WMR3 whole entry): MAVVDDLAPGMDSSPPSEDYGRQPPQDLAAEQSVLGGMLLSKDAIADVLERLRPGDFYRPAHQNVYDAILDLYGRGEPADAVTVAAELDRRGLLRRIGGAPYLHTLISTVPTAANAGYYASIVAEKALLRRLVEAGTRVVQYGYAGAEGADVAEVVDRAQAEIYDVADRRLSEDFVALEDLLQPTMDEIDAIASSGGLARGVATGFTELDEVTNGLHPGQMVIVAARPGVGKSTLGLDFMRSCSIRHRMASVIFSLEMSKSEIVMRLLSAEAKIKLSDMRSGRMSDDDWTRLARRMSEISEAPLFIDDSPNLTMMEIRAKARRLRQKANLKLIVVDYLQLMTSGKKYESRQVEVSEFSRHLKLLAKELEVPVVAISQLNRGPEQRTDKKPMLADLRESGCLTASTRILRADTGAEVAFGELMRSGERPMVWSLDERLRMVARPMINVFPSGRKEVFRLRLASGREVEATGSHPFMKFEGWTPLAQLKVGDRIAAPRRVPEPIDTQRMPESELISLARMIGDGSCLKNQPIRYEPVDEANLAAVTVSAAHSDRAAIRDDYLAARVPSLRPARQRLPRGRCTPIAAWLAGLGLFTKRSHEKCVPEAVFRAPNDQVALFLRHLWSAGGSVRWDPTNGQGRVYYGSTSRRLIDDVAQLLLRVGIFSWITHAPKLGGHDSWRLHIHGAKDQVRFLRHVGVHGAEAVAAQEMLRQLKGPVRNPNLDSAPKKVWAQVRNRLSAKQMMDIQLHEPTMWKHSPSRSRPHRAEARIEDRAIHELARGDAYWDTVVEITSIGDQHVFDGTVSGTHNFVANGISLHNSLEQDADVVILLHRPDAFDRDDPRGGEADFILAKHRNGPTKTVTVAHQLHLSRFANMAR

[4] = target: Dual specificity protein kinase CLK2 (Homo sapiens, UniProt P49760); assay type: functional
[5] = target: Tyrosine-protein kinase receptor TYRO3 (Homo sapiens, UniProt Q06418); assay type: functional;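 note: TYRO3 value obtained as one member of a kinome-wide profiling panel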
[6] = target: Tyrosine-protein kinase JAK3 (Homo sapiens, UniProt P52333); assay type: functional
[7] = target: Mitogen-activated protein kinase 9 (Homo sapiens, UniProt P45984); assay type: functional;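 note: value from a kinome panel profiling assay, MAPK9 panel entry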
[8] = target: Mitogen-activated protein kinase kinase kinase kinase 2 (Homo sapiens, UniProt Q12851); assay type: functional;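 note: measured as one member of a kinome-wide kinase panel, with MAP4K2 as the panel entry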
[9] = target: T3, cAMP-dependent protein kinase catalytic subunit PRKX (Homo sapiens, UniProt P51817); assay type: functional
T3 sequence (P51817 whole entry): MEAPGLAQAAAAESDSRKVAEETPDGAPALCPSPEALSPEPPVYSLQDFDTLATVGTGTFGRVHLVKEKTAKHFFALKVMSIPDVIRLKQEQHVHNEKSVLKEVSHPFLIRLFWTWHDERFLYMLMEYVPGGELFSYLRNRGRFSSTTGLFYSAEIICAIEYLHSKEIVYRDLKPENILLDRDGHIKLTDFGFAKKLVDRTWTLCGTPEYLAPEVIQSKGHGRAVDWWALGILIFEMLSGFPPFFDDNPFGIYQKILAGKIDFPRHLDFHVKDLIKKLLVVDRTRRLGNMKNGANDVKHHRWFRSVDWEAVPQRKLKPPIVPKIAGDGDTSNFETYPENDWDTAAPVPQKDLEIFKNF

[10] = target: Tyrosine-protein kinase Fyn (Homo sapiens, UniProt P06241); assay type: functional
[11] = target: cAMP-dependent protein kinase catalytic subunit alpha (Homo sapiens, UniProt P17612); assay type: functional

Tyrosine-protein kinase Fyn, sequence (P06241 whole entry): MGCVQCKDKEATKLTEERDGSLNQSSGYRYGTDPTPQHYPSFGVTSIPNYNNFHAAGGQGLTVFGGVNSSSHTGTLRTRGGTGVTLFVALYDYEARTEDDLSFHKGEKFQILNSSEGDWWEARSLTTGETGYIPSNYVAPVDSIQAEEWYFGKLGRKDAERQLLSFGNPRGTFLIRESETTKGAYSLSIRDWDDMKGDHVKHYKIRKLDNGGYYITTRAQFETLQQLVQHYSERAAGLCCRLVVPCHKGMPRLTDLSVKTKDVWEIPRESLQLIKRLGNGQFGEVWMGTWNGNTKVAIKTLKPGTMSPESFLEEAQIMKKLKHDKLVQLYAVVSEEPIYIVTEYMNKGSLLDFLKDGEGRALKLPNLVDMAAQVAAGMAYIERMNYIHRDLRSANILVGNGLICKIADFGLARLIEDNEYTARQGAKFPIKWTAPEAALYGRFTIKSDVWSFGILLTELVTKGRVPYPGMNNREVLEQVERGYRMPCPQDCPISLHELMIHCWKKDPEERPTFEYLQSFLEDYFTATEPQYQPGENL
Dual specificity protein kinase CLK2, sequence (P49760 whole entry): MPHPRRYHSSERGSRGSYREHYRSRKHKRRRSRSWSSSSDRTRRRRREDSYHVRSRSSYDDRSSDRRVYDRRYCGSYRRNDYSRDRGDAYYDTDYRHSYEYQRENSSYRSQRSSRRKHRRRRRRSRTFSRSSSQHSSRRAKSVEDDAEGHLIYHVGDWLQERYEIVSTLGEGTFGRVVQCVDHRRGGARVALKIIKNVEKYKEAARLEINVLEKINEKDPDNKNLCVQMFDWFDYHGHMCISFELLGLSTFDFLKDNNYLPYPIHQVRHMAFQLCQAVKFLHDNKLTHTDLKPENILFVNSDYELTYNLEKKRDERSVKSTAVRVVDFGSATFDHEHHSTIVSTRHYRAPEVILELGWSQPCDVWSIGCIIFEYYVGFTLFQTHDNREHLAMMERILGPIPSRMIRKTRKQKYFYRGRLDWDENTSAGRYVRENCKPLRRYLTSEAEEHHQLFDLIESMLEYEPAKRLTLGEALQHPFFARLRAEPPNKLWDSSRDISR
Mitogen-activated protein kinase kinase kinase kinase 2, sequence (Q12851 whole entry): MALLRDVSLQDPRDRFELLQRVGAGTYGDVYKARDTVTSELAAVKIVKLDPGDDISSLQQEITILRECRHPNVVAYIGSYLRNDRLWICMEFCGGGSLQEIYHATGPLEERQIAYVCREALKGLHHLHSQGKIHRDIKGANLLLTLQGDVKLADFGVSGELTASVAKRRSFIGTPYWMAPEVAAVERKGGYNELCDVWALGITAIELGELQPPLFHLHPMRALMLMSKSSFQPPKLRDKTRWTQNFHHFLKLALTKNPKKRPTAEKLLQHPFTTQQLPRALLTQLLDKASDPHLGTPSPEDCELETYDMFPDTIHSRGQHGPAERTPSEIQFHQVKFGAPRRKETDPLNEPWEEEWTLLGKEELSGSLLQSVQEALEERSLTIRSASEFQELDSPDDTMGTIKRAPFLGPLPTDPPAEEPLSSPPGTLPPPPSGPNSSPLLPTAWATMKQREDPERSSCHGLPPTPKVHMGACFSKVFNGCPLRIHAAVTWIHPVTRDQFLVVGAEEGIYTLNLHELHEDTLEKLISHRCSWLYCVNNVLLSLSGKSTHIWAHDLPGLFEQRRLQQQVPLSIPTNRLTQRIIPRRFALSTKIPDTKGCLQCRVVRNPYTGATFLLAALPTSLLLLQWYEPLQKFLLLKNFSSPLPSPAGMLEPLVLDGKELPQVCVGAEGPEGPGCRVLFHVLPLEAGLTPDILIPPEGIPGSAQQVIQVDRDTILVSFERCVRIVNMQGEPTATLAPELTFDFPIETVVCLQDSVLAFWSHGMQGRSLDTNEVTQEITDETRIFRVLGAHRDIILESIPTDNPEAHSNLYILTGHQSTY
Tyrosine-protein kinase JAK3, sequence (P52333 whole entry): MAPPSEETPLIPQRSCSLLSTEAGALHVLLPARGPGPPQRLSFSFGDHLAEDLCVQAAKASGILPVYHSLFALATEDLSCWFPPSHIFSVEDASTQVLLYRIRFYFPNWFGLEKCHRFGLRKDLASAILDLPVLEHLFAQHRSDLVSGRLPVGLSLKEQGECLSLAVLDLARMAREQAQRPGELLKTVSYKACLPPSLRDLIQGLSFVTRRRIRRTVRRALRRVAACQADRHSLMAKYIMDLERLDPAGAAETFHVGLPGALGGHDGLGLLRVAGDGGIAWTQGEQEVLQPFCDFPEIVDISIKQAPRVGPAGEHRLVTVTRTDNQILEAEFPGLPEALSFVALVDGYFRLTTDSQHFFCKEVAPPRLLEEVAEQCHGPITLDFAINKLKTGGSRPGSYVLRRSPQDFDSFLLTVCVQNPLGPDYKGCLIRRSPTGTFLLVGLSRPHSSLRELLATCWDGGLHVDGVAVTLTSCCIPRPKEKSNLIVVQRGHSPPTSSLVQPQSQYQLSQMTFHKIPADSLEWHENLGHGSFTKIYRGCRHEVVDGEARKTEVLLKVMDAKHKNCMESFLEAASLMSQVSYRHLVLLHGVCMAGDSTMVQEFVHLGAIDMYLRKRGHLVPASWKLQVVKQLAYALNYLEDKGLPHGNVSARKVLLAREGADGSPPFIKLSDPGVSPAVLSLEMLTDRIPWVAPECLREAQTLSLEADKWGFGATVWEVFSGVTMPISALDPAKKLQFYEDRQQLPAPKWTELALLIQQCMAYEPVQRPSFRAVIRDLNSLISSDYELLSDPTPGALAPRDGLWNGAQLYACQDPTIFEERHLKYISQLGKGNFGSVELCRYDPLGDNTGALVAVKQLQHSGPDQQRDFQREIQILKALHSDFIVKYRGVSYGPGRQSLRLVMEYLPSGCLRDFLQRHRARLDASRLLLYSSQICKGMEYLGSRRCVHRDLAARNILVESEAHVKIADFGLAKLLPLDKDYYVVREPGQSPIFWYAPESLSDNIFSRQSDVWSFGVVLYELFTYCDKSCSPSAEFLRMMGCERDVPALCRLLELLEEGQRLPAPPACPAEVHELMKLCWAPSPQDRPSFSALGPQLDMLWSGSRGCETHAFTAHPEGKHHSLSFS
Mitogen-activated protein kinase 9, sequence (P45984 whole entry): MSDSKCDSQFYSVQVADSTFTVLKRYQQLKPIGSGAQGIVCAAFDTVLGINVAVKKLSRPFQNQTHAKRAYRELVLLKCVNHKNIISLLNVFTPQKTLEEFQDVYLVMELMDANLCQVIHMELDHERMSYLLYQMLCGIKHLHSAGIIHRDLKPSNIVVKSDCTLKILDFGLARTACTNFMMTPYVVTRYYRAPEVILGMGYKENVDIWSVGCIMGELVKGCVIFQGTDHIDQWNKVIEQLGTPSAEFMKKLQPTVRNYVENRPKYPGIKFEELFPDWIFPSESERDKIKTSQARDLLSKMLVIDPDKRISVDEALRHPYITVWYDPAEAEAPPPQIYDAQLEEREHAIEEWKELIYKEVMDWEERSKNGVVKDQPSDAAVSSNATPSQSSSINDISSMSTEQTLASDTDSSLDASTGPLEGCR
Tyrosine-protein kinase receptor TYRO3, sequence (Q06418 whole entry): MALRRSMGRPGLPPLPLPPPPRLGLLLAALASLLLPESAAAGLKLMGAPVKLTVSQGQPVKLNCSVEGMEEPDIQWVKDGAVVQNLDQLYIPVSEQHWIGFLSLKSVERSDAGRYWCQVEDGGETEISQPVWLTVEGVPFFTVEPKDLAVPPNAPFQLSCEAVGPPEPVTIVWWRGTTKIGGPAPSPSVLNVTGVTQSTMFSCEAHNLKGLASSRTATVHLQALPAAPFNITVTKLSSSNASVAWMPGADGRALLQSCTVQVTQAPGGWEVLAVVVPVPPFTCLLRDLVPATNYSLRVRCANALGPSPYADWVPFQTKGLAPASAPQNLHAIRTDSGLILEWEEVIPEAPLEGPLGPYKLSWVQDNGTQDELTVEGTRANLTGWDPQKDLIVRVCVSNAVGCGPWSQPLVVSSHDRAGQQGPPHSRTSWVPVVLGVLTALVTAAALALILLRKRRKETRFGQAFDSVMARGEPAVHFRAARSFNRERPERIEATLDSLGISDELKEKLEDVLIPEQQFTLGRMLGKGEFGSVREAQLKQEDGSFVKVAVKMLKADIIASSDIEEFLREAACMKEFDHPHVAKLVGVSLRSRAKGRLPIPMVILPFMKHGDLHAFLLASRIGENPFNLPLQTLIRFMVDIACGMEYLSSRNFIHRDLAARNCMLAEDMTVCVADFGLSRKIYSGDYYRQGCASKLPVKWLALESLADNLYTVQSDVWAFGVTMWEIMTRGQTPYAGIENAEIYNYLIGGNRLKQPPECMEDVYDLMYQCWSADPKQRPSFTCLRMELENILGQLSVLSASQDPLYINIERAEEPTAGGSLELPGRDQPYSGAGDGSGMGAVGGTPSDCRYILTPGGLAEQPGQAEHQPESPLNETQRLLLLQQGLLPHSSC

| SMILES | EC50 [1] | IC50 [2] | AC50 [3] | Ki [4] | Ki [5] | Ki [6] | Ki [7] | Ki [8] | Ki [9] | Ki [10] | Ki [11] |
| --- | --- | --- | --- | --- | --- | --- | --- | --- | --- | --- | --- |
| Cc1cc(C)c[n+](C2=C([N-]S(=O)(=O)c3cccs3)C(=O)c3ccccc3C2=O)c1 | 0.941 µM (active) | 41.2 µM (active) |  |  |  |  |  |  |  |  |  |
| CCCCCCCCCCC[N+](C)(C)CC/C=C1/c2ccccc2Sc2ccc(Cl)cc21 | 1.46 µM (active) |  | > 380 µM (inactive) |  |  |  |  |  |  |  |  |
| CCn1c(-c2nonc2N)nc2cncc(C(=O)N3CCC(N)C3)c21 (configuration not stated) |  |  |  | 1 µM (active) | > 3.16 µM (inactive) | > 5.01 µM (inactive) | > 3.98 µM (inactive) | > 2.51 µM (inactive) | 0.02 µM (active) | > 6.31 µM (inactive) | 0.00316 µM (active) |
| Cc1[nH]nc2ccc(-c3cncc(OCC(N)Cc4c[nH]c5ccccc45)c3)cc12 (configuration not stated) |  |  |  | 0.00316 µM (active) | > 2 µM (inactive) | 0.316 µM (active) | 2 µM (active) | 0.0251 µM (active) | 0.0631 µM (active) | > 0.794 µM (inactive) | 0.00501 µM (active) |
| COC(=O)c1ccccc1NC1=C/C(=N\S(=O)(=O)c2cccs2)c2ccccc2C1=O |  | 32.3 µM (active) | > 380 µM (inconclusive) |  |  |  |  |  |  |  |  |
